Measurements taken from patent US7196074B2, “Methods of making, using and pharmaceutical formulations comprising 7α, 11β-dimethyl-17β-hydroxyestra-4, 14-dien-3-one and 17 esters thereof” (The United States of America as represented by the …, priority 2000, dated 2007).

Legend:
[1] = test system: ventral prostate weight; assay: Subcutaneous androgenic potency, ventral prostate weight assay in orchidectomized immature rats (injection daily for seven days); format: in vivo, Sprague-Dawley rats; settings: for Androgenic Potency (activity of corresponding alcohol): ventral prostate weight assay following subcutaneous administration, alcohol of G = 1.0 (assigned), value is for the free alcohol of the listed ester
Procedure: (§1) Immature (about 21-day-old) Sprague-Dawley rats were orchidectomized under anesthesia, and randomly assignee to groups of ten animals for each dose level of the active undergoing testing. Each active was dissolved in 10% ethanol/sesame oil and administered by gavage (oral) or subcutaneous injection each day for seven days beginning on the date of the orchidectomy. The animals were sacrificed 24 hours after the last dose, and the ventral prostate and seminal vesicles were excised, cleaned of fat and connective tissue, blotted on moist filter paper and weighed to the nearest 0.1 mg. Regression analysis was performed by conventional methods using a PROPHET data management system. Ventral prostate weight was used as the endpoint because it is the sensitive organ to androgenic stimulation.
as §1, with “by” for “by gavage (oral) or”, “mg. See, e.g., Hershberger, L. et al, Myotrophic Activity of 19-nortestosterone And Other Steroids Determined By Modified Levator And Muscle Method, Proc. Soc. Exptl. Bid. Med. 83 175–180 (1953).” for “mg.”, “system. See, e.g., Bliss, C., The Statistics of Bioassay (Academic Press, New York, 1952); Hollister, C., Nucleic Acids Res. 16 1873–75 (1988).” for “system.”
Immature (about 22-day-old) Sprague-Dawley male rats were orchidectomized under anesthesia, and randomly assignee to groups of ten animals for each dose level of the active undergoing testing. […] Illumination was controlled for 14 hour periods of light and 10 hours of darkness.
Each active was administered by subcutaneous injection of 0.6 mg of test material in aqueous suspending vehicle (ASV) and/or an oily vehicle (10% ethanol/sesame oil) on the day of surgery. Testosterone enanthate in sesame oil was used as a standard. The ventral prostate and seminal vesicles were excised, cleaned of fat and connective tissue, blotted on moist filter paper and weighed to the nearest 0.1 mg. Regression analysis was performed by conventional methods using a PROPHET data management system. Ventral prostate weight was used as the endpoint because it is the sensitive organ to androgenic stimulation.

[2] = test system: ventral prostate weight; assay: Duration of androgenic activity after subcutaneous injection, ventral prostate weight over weeks in orchidectomized immature rats; format: in vivo, Sprague-Dawley rats
Procedure: as §1, with “was” for “was dissolved in 10% ethanol/sesame oil and”, “by” for “by gavage (oral) or”
Except for testosterone enanthate, each active was formulated in two different carriers: (1) an aqueous suspension and (2) in sesame oil. Testosterone enanthate was formulated using the sesame oil carrier only, because it exists as a liquid at room temperature and could not therefore be formulated as an aqueous suspension.
(§2) The carrier used to provide the aqueous suspension was formulated as follows: 1 g benzyl alcohol, 0.5 g sodium carboxylethyl cellulose 50, 0.376 g disodium hydrogen phosphate dihydrate, 1.495 g sodium dihydrogen phosphate dihydrate, with water for injection (WFI) being added to bring volume of the carrier up to 100 ml.
Each formulation was prepared at a concentration of 0.6 mg/0.2 ml.
Immature (about 21-day-old) Sprague-Dawley rats were orchidectomized under anesthesia, and randomly assignee to groups of 40 or more. Animals received a single subcutaneous injection of 0.6 mg of each ester in 0.2 ml of an aqueous suspending carrier and/or oily carrier (10% ethanol/90% sesame oil or ethyl oleate) on the date of the orchidectomy. In cases where the ester was not solid at room temperature, 10% ethanol/sesame oil or ethyl oleate was used as the carrier. In this example, the carrier used to provide the aqueous suspension was formulated as follows: 1 g benzyl alcohol, 0.5 g sodium carboxylethyl cellulose 50, 0.376 g disodium hydrogen phosphate dihydrate, 1.495 g sodium dihydrogen phosphate dihydrate, with water for injection (WFI) being added to bring volume of the carrier up to 100 ml.
Five animals from each group were sacrificed at weekly or biweekly intervals, and the ventral prostate and seminal vesicles were excised, cleaned of fat and connective tissue, blotted on moist filter paper and weighed to the nearest 0.1 mg.
Ventral prostate weight was used as the endpoint because it is the sensitive organ to androgenic stimulation. Regression analysis was performed by conventional methods using the PROPHET data management system previously identified.
Immature (about 21-day-old) Sprague-Dawley rats were orchidectomized under anesthesia, and randomly assignee to groups of 40 or more. Animals received a single subcutaneous injection of 0.6 mg of the undecanoate in 0.2 ml of an aqueous suspending carrier and/or oily carrier (10% ethanol/90% sesame oil containing 5 mg/ml chlorobutanol as a preservative, or ethyloleate) on the date of the orchidectomy. The enanthate ester was formulated using the 10% ethanol/sesame oil or ethyloleate carrier as a first standard, with the 10% ethanol/sesame oil carrier used as a second standard.
as §2, with “In this example, the” for “The”
Immature (about 21-day-old) Sprague-Dawley rats were orchidectomized under anesthesia, and randomly assignee to groups of 40 or more. […] The enanthate ester was formulated using the 10% ethanol/sesame oil or ethyloleate carrier as a first standard, with the 10% ethanol/sesame oil carrier used as a second standard.

[3] = target: T1, androgen receptor (Rattus norvegicus, UniProt P15207); assay: Relative binding affinity to the androgen receptor; settings: from rat prostate; relative to methyltrienolone = 100%; value is for the free alcohol of the listed ester
T1 sequence (P15207 1-902): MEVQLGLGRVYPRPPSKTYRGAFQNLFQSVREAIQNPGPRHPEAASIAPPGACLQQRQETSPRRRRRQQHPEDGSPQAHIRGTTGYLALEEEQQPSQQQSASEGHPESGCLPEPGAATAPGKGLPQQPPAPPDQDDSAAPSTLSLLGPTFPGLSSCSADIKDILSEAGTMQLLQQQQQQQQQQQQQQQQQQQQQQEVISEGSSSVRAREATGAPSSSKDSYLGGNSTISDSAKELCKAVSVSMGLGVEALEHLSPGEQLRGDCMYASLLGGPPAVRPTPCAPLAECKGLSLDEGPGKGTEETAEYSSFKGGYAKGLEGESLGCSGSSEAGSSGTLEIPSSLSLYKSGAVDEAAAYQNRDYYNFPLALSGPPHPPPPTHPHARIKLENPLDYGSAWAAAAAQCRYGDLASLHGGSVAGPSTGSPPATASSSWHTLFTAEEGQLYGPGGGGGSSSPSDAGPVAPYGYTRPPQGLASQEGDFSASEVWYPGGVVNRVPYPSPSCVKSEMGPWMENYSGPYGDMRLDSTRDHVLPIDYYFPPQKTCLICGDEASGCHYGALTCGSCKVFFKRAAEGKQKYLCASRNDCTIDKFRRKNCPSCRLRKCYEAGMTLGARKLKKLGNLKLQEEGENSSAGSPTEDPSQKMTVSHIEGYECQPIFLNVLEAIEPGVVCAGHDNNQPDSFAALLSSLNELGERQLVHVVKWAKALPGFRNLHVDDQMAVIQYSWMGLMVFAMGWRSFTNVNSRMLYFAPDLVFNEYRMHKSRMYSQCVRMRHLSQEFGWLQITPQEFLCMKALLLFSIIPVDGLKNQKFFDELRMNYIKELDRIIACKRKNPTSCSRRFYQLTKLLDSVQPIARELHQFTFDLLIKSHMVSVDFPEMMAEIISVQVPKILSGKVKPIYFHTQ
Procedure: In addition to the foregoing, the androgenic potency and relative binding affinity to the androgen receptor of several free alcohols after subcutaneous administration of their corresponding esters was also determined.

C[C@@H]1CC2=CC(=O)CC[C@@H]2[C@@H]2[C@@H]1[C@@H]1CC[C@H](O)[C@@]1(C)C[C@@H]2C
melting point: 155 to 157 °C

CCCCC1CCC(C(=O)O[C@H]2CC[C@H]3[C@H]4[C@H]([C@H](C)C[C@]23C)[C@H]2CCC(=O)C=C2C[C@H]4C)CC1 (stereo partly drawn) [CDB-4386, 7α, 11α-Dimethyl-19-nortestosterone-17β-bucyclate, reference compound]
activity after subcutaneous administration (in words) ([1]; subcutaneous injection daily for 7 days in 10% ethanol/sesame oil, ventral prostate weight): weak activity | ventral prostate weight over time after single subcutaneous injection (in words) ([2]; 0.6 mg in 0.2 ml, both oily and aqueous carriers, evaluation discontinued at 8 weeks, FIG. 8): inactive | activity in potency and duration after subcutaneous injection (in words), FIG. 5 ([2]; 0.6 mg/0.2 ml, aqueous suspension or sesame oil, ventral prostate weight): relatively low activity

C[C@]1(O)CC[C@H]2[C@@H]3CCC4=CC(=O)CCC4=C3C=C[C@@]21C [methyltrienolone]
Androgenic Potency (activity of corresponding alcohol) [1]: 5.0 | Relative Binding Affinity (activity of corresponding alcohol) [3]: 100%

CCCCC1CCC(C(=O)O[C@H]2CC[C@H]3[C@@H]4CCC5=CC(=O)CC[C@]5(C)[C@H]4CC[C@]23C)CC1 (some centres unmarked) [testosterone bucyclate, Testosterone bucyclate, reference compound]
Androgenic Potency (activity of corresponding alcohol) [1]: 1.0 (assigned) | potency and long-term activity after subcutaneous injection versus 0.6 mg CDB-4386A in aqueous suspension (in words), FIG. 5 ([2]; 1.0 mg/0.2 ml, aqueous suspension, ventral prostate weight): significantly less
